Test results as given in patent publication US12171743B2, “Forms of aticaprant” (Janssen Pharmaceuticals, Inc., priority 2022, dated 2024).

Columns and labels:
subjects with MDD [1] = experiment: SHAPS total score (anhedonia), same study; type: in vivo, human; conditions: for SHAPS Total Score Change from Baseline LSMean Difference (SE) Treatment-Placebo: MMRM
Description: To assess a potential effect on anhedonia, an anhedonia scale may be used. For example, the Snaith-Hamilton Pleasure Scale (SHAPS) analysis is a validated scale for the measurement of anhedonia. The SHAPS is a subject completed scale in which subjects score whether or not they experience pleasure in performing a list of activities or experiences. The SHAPS is a self-reported 14-item instrument, developed for the assessment of hedonic capacity. Subjects score whether they experience pleasure in performing a list of activities or experiences. Subjects can rate the answers as 1˜4 where 1 indicates “Definitely agree”, 2 indicates “Agree”, 3 indicates “Disagree” and 4 indicates “Definitely disagree”. The subject's item responses are summed to provide a total score ranging from 14 to 56. A higher total SHAPS score indicates higher levels of current anhedonia. Physician/clinical judgment can be used to assess anhedonia separately or in conjunction with an anhedonia scale.
In some embodiments, the patient has moderate anhedonia. In other embodiments, the patient has severe anhedonia. An assessment of moderate or severe anhedonia is typically determined physician/clinical judgment and/or by one or more tests that provide insight into whether a patient has anhedonia. For example, the severity of the anhedonia may be determined using the SHAPS method. In some embodiments, a patient with moderate or severe anhedonia is considered to have a high level of anhedonia. For example, a patient with a SHAPS score of 38 or greater is considered to have moderate to severe anhedonia that can be considered a high level of anhedonia. In some embodiments, a high level of anhedonia is reflected by a SHAPS score of at least about 40, about 42, about 44, about 46, about 48, about 50, about 52, about 54, about 56, […]. A patient with mild or no anhedonia would be considered to have a low level of anhedonia that is assessed by physician/clinical judgment and/or one or more tests. For example, a patient with a SHAPS score of less than 38 is considered to have low anhedonia. In certain embodiments, a patient with mild anhedonia may have a SHAPS score of 20 to less than 38, for example, a SHAPS score of 20 to about 36, about 22 to about 36, about 24 to about 36, about 26 to about 36, about 26 to about 34, about 26 to about 32, about 26 to about 30, about 26 to about 28, about 28 to about 36, about 28 to about 36, about 30, to about 36, about 32 to about 36, about 34 to about 36, about 20 to about 34, about 22 to about 34, about 24 to about 34, about 26 to about 32, about 26 to about 30, about 26 to about 28, about 28 to about 36, about 28 to about 34, about 28 to about 32, about 28 to about 30, about 30 to about 36, about 30 to about 34, about 30 to about 32, about 32 to about 36, about 32 to about 34, or about 34 to about 36. Typically, a SHAPS score of less than 20 can be considered to correspond to normal hedonic functioning, and for purposes of this disclosure, would fall into the low category of anhedonia, e.g., a SHAPS score of less than 38.
The secondary objectives are: • i. […] To investigate the effect of aticaprant versus placebo on depression related anhedonia as assessed by the SHAPS. • iv.

subjects with MDD [2] = experiment: MADRS total score, adjunctive aticaprant vs placebo in MDD (Example 8); conditions: for MADRS Total Score: Mean Change from Baseline (SD): aticaprant 10 mg adjunctive to SSRI/SNRI; for MADRS: LSMeans difference estimate, supplementary MMRM analysis (COVID-19 impact): data collected prior to 15 Mar. 2020
[3] = fITT Analysis Set, Treatment Week 5
[4] = number of subjects, eITT Analysis Set, Treatment Baseline, N 60
[5] = number of subjects, eITT Analysis Set, Treatment Week 6, N 59
[6] = number of subjects, fITT Analysis Set, Baseline/Day 22 (before treatment), N 83
[7] = number of subjects, fITT Analysis Set, Treatment Baseline, N 83
[8] = eITT Analysis Set, High anhedonia (SHAPS Total Score at Treatment Baseline >=38), Treatment Week 6
[9] = fITT Analysis Set, High anhedonia (SHAPS Total Score at Treatment Baseline >=38), Treatment Week 6

## Cc1cc(C)cc(C2CCCN2Cc2ccc(Oc3ccc(C(N)=O)cc3F)cc2)c1 (stereo not shown) [aticaprant, 3-fluoro-4-4-2-(3,5-dimethylphenyl) pyrrolidin-1-yl-methylphenoxybenzamide]
Subjects with MDD [1]; eITT Analysis Set, Treatment Week 1
  SHAPS Total Score Change from Baseline LSMean Difference (SE) Treatment-Placebo: −0.8
Subjects with MDD [1]; eITT Analysis Set, Treatment Week 3
  SHAPS Total Score Change from Baseline LSMean Difference (SE) Treatment-Placebo: −1.4
Subjects with MDD [1]; eITT Analysis Set, Treatment Week 4
  SHAPS Total Score Change from Baseline LSMean Difference (SE) Treatment-Placebo: −1.4
Subjects with MDD [1]; eITT Analysis Set, Treatment Week 5
  SHAPS Total Score Change from Baseline LSMean Difference (SE) Treatment-Placebo: −0.5
Subjects with MDD [1]; eITT Analysis Set, Treatment Week 6
  SHAPS Total Score Change from Baseline LSMean Difference (SE) Treatment-Placebo: −0.7
Subjects with MDD [1]; eITT Analysis Set, Treatment Week 6, negative favors aticaprant
  SHAPS Total Score Effect Size: −0.07
Subjects with MDD [1]; eITT, Treatment Week 6
  SHAPS total score: mean change from treatment baseline (SD): −4.6 (6.23)
  SHAPS total score: observed effect size: 0.07
Subjects with MDD [1]; fITT Analysis Set, Baseline/Day 22 (before treatment), N 83
  Frequency of Subjects: No Anhedonia (SHAPS Total Score < 20): 1.2%
Subjects with MDD [1]; fITT Analysis Set, Treatment Baseline, N 83 (Table 64)
  Frequency of Subjects: No Anhedonia (SHAPS Total Score < 20): 1.2%
Subjects with MDD [1]; fITT Analysis Set, Treatment Week 1
  SHAPS Total Score Change from Baseline LSMean Difference (SE) Treatment-Placebo: −1.0 (0.72)
Subjects with MDD [1]; fITT Analysis Set, Treatment Week 3
  SHAPS Total Score Change from Baseline LSMean Difference (SE) Treatment-Placebo: −1.4 (0.73)
Subjects with MDD [1]; fITT Analysis Set, Treatment Week 4
  SHAPS Total Score Change from Baseline LSMean Difference (SE) Treatment-Placebo: −1.6 (0.73)
Subjects with MDD [1]; [3]
  SHAPS Total Score Mean Change from Baseline (SD): −4.3 (5.70)
  SHAPS Total Score Change from Baseline LSMean Difference (SE) Treatment-Placebo: −0.8 (0.73)
Subjects with MDD [1]; fITT Analysis Set, Treatment Week 6
  SHAPS Total Score Change from Baseline LSMean Difference (SE) Treatment-Placebo: −0.8 (0.73)
Subjects with MDD [1]; [4]
  Frequency of Subjects: High Level of Anhedonia (SHAPS Total Score >= 38): 26
  Frequency of Subjects: Low Level of Anhedonia Score < 20) Total Score < 38): 34
  Frequency of Subjects: No Anhedonia (SHAPS Total): 0
Subjects with MDD [1]; [5]
  Frequency of Subjects: High Level of Anhedonia (SHAPS Total Score >= 38): 8
  Frequency of Subjects: Low Level of Anhedonia Score < 20) Total Score < 38): 48
  Frequency of Subjects: No Anhedonia (SHAPS Total): 3
Subjects with MDD [1]; [6]
  Frequency of Subjects: Anhedonia (SHAPS Total Score >= 20): 82
  Frequency of Subjects: No Anhedonia (SHAPS Total Score < 20): 1
Subjects with MDD [1]; [7]
  Frequency of Subjects: High Level of Anhedonia (SHAPS Total Score >= 38): 30
  Frequency of Subjects: Low Level of Anhedonia (20 >= SHAPS Total Score < 38): 52
Subjects with MDD [1]; number of subjects, fITT Analysis Set, Treatment Baseline, N 83 (Table 64)
  Frequency of Subjects: No Anhedonia (SHAPS Total Score < 20): 1
Subjects with MDD [2]; [8]
  MADRS Total Score Effect size: −0.38
  MADRS Total Score Mean Change to Placebo (SD pooled): −3.4 (8.98)
Subjects with MDD [2]; eITT Analysis Set, Low anhedonia (SHAPS Total Score at Treatment Baseline >=20 and <38), Treatment Week 6
  MADRS Total Score Effect size: −0.11
Subjects with MDD [2]; eITT, Treatment Week 1
  MADRS Total Score: Mean Change from Baseline (SD): −3.3
Subjects with MDD [2]; eITT, Treatment Week 3
  MADRS Total Score: Mean Change from Baseline (SD): −5.7
Subjects with MDD [2]; eITT, Treatment Week 4
  MADRS Total Score: Mean Change to Placebo (SD pooled): −0.9 (7.00)
  MADRS Total Score: Mean Change from Baseline (SD): −7.3
Subjects with MDD [2]; eITT, Treatment Week 5
  MADRS Total Score: Mean Change from Baseline (SD): −8.4
Subjects with MDD [2]; eITT, Treatment Week 6
  MADRS Total Score: Mean Change from Baseline (SD): −10.2 (8.44)
Subjects with MDD [2]; eITT
  MADRS: LSMeans difference estimate, supplementary MMRM analysis (COVID-19 impact): −3.0
Subjects with MDD [2]; [9]
  MADRS Total Score Effect size: −0.51
  MADRS Total Score Mean Change to Placebo (SD pooled): −4.6 (9.03)
Subjects with MDD [2]; fITT Analysis Set, Low anhedonia (SHAPS Total Score at Treatment Baseline >=20 and <38), Treatment Week 6
  MADRS Total Score Effect size: −0.29
Subjects with MDD [2]; fITT Analysis Set, Treatment Week 1, MMRM
  MADRS Total Score Change from Baseline LSMean Difference (SE) Treatment-Placebo: −1.6 (1.03)
Subjects with MDD [2]; fITT Analysis Set, Treatment Week 3, MMRM
  MADRS Total Score Change from Baseline LSMean Difference (SE) Treatment-Placebo: −1.9 (1.04)
Subjects with MDD [2]; fITT Analysis Set, Treatment Week 4, MMRM
  MADRS Total Score Change from Baseline LSMean Difference (SE) Treatment-Placebo: −2.5 (1.04)
Subjects with MDD [2]; fITT Analysis Set, Treatment Week 5, MMRM
  MADRS Total Score Change from Baseline LSMean Difference (SE) Treatment-Placebo: −2.4 (1.05)
Subjects with MDD [2]; fITT Analysis Set, Treatment Week 6, MMRM
  MADRS Total Score Change from Baseline LSMean Difference (SE) Treatment-Placebo: −3.1 (1.05)
Subjects with MDD [2]; fITT, Treatment Week 4
  MADRS Total Score: Mean Change to Placebo (SD pooled): −2.3 (7.02)
Subjects with MDD [2]; fITT, Treatment Week 6
  MADRS total score: mean change from treatment baseline (SD): −9.7 (8.02)
Subjects with MDD [2]; fITT, Treatment Week 6, MMRM
  MADRS Total Score: Least Squares Mean Difference aticaprant vs placebo: −3.1
Subjects with MDD [2]; fITT
  MADRS: LSMeans difference estimate, supplementary MMRM analysis (COVID-19 impact): −3.4
